Test results published in PubChem BioAssay AID330 (DTP/NCI, 2004).
Inconclusive results and toxic doses are left out.

Tested on: P388 leukemia ip, CD2F1 mice, survival T/C
Assay: NCI In Vivo Anticancer Drug Screen. Data for tumor model P388 Leukemia (intraperitoneal) in CD2F1 (CDF1) mice
Settings: endpoint: median survival time, higher = longer survival
Method in brief: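 Mice carrying the transplanted tumor received test compound or vehicle. Survival was recorded in each group, and the value is the treated-group measurement divided by that of the vehicle-treated control group.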

[1] = dose: 50.0 mg/kg/injection, schedule: Q01DX009 (ip), vehicle: Klucel (hydroxypropylcellulose) (HPC)
[2] = dose: 100.0 mg/kg/injection, schedule: Q01DX009 (ip), vehicle: Klucel (hydroxypropylcellulose) (HPC)
[3] = dose: 200.0 mg/kg/injection, schedule: Q01DX009 (ip), vehicle: Klucel (hydroxypropylcellulose) (HPC)
[4] = dose: 50.0 mg/kg/injection, schedule: Q01DX005 (ip), vehicle: Klucel (hydroxypropylcellulose) (HPC)
[5] = dose: 100.0 mg/kg/injection, schedule: Q01DX005 (ip), vehicle: Klucel (hydroxypropylcellulose) (HPC)
[6] = dose: 200.0 mg/kg/injection, schedule: Q01DX005 (ip), vehicle: Klucel (hydroxypropylcellulose) (HPC)
[7] = dose: 50.0 mg/kg/injection, schedule: Q01DX005 (ip), vehicle: saline
[8] = dose: 100.0 mg/kg/injection, schedule: Q01DX005 (ip), vehicle: saline
[9] = dose: 200.0 mg/kg/injection, schedule: Q01DX005 (ip), vehicle: saline
[10] = dose: 50.0 mg/kg/injection, schedule: Q01DX005 (ip), vehicle: saline with Tween-80
[11] = dose: 100.0 mg/kg/injection, schedule: Q01DX005 (ip), vehicle: saline with Tween-80
[12] = dose: 200.0 mg/kg/injection, schedule: Q01DX005 (ip), vehicle: saline with Tween-80
[13] = dose: 25.0 mg/kg/injection, schedule: Q01DX009 (ip), vehicle: other
[14] = dose: 50.0 mg/kg/injection, schedule: Q01DX009 (ip), vehicle: other
[15] = dose: 100.0 mg/kg/injection, schedule: Q01DX009 (ip), vehicle: other
[16] = dose: 60.0 mg/kg/injection, schedule: Q01DX005 (ip), vehicle: Klucel (hydroxypropylcellulose) (HPC)
[17] = dose: 120.0 mg/kg/injection, schedule: Q01DX005 (ip), vehicle: Klucel (hydroxypropylcellulose) (HPC)
[18] = dose: 240.0 mg/kg/injection, schedule: Q01DX005 (ip), vehicle: Klucel (hydroxypropylcellulose) (HPC)
[19] = dose: 60.0 mg/kg/injection, schedule: Q01DX005 (ip), vehicle: saline with Tween-80
[20] = dose: 120.0 mg/kg/injection, schedule: Q01DX005 (ip), vehicle: saline with Tween-80
[21] = dose: 240.0 mg/kg/injection, schedule: Q01DX005 (ip), vehicle: saline with Tween-80
[22] = dose: 50.0 mg/kg/injection, schedule: Q01DX009 (ip), vehicle: saline with Tween-80
[23] = dose: 100.0 mg/kg/injection, schedule: Q01DX009 (ip), vehicle: saline with Tween-80
[24] = dose: 200.0 mg/kg/injection, schedule: Q01DX009 (ip), vehicle: saline with Tween-80
[25] = dose: 100.0 mg/kg/injection, schedule: Q04DX002 (ip), vehicle: Klucel (hydroxypropylcellulose) (HPC)
[26] = dose: 200.0 mg/kg/injection, schedule: Q04DX002 (ip), vehicle: Klucel (hydroxypropylcellulose) (HPC)
[27] = dose: 400.0 mg/kg/injection, schedule: Q04DX002 (ip), vehicle: Klucel (hydroxypropylcellulose) (HPC)

With CCN(CC)Cc1cc(N=Nc2ccc([N+](=O)[O-])c(OC)c2)c2ccccc2c1O the T/C [1] was 99 % of control, the T/C [2] was 95 % of control and the T/C [3] was 97 % of control.
CCOC(=O)c1nn(C)c2oc(=O)ccc12 was tested, and the T/C (dose: 25.0 mg/kg/injection, schedule: Q01DX005 (ip), vehicle: Klucel (hydroxypropylcellulose) (HPC)) was 106 % of control, the T/C [4] was 108 % of control and the T/C [5] was 104 % of control. The T/C [6] was 104 % of control.
With Nc1noc(N)n1 the T/C [7] was 107 % of control, the T/C [8] was 110 % of control and the T/C [9] was 124 % of control.
In the case of O=C(Nc1ccc(S(=O)(=O)Nc2nccs2)cc1)c1ccncc1, the T/C [10] is reported as 102 % of control, the T/C [11] is reported as 102 % of control and the T/C [12] is reported as 102 % of control.
O=C(Oc1ccc(NC(=O)c2cc3c(cc2Br)OCO3)cc1)c1ccccc1 was tested, and the T/C [13] was 104 % of control, the T/C [14] was 103 % of control and the T/C [15] was 89 % of control. For the same compound, the T/C (dose: 200.0 mg/kg/injection, schedule: Q01DX009 (ip), vehicle: other) was 97 % of control and the T/C (dose: 400.0 mg/kg/injection, schedule: Q01DX009 (ip), vehicle: other) was 95 % of control.
In the case of c1ccc(-c2cc(Nc3ccc4c(c3)OCO4)c3cc4c(cc3n2)OCO4)cc1, the T/C [4] is reported as 101 % of control, the T/C [5] is reported as 101 % of control and the T/C [6] is reported as 97 % of control.
In the case of COC(=O)Nc1nc2ccc(C(=O)C3CC3)cc2[nH]1, the T/C (dose: 12.5 mg/kg/injection, schedule: Q01DX005 (ip), vehicle: saline with Tween-80) is reported as 111 % of control, the T/C (dose: 25.0 mg/kg/injection, schedule: Q01DX005 (ip), vehicle: saline with Tween-80) is reported as 108 % of control and the T/C [10] is reported as 117 % of control. The T/C [11] was 180 % of control.
For CCCCCCCCCCCCCCCCSC1=CC(=O)C(Cl)=C(Cl)C1=O, the T/C (dose: 10.0 mg/kg/injection, schedule: Q01DX009 (ip), vehicle: Klucel (hydroxypropylcellulose) (HPC)) was 96 % of control, the T/C (dose: 20.0 mg/kg/injection, schedule: Q01DX009 (ip), vehicle: Klucel (hydroxypropylcellulose) (HPC)) was 96 % of control and the T/C (dose: 40.0 mg/kg/injection, schedule: Q01DX009 (ip), vehicle: Klucel (hydroxypropylcellulose) (HPC)) was 95 % of control.
With COc1ccc2c3csc4ccccc4c-3nc2c1 the T/C (dose: 16.0 mg/kg/injection, schedule: Q01DX009 (ip), vehicle: saline) was 107 % of control, the T/C (dose: 25.0 mg/kg/injection, schedule: Q01DX009 (ip), vehicle: saline) was 115 % of control and the T/C (dose: 35.0 mg/kg/injection, schedule: Q01DX009 (ip), vehicle: saline) was 95 % of control.
In the case of N#C/C(OC1OC(CO)C(O)C(O)C1O)=C(\C=C/C(=O)O)CC(=O)O (stereo unspecified), the T/C [7] is reported as 105 % of control, the T/C [8] is reported as 106 % of control and the T/C [9] is reported as 105 % of control.
COC(=O)N1CCCc2ccc3c(OC)c(OC)cc(c3c2)CC1 was tested, and the T/C [16] was 100 % of control, the T/C [17] was 100 % of control and the T/C [18] was 88 % of control.
For CCc1ccc2ccc3ccc(CC)nc3c2n1, the T/C [19] was 106 % of control, the T/C [20] was 102 % of control and the T/C [21] was 99 % of control.
For Cc1cnc(C=O)c2cccc([N+](=O)[O-])c12, the T/C [1] was 105 % of control and the T/C [2] was 112 % of control.
With COc1cccc2c1C(=O)c1c(O)c3c(c(O)c1C2=O)C[C@@](O)(/C(C)=N/NC(=O)c1cccs1)C[C@@H]3OC1CC(N)C(O)C(C)O1 (stereo partly specified) the T/C (dose: 1.56 mg/kg/injection, schedule: Q04DX003 (ip), vehicle: saline) was 169 % of control, the T/C (dose: 3.13 mg/kg/injection, schedule: Q04DX003 (ip), vehicle: saline) was 178 % of control and the T/C (dose: 6.25 mg/kg/injection, schedule: Q04DX003 (ip), vehicle: saline) was 191 % of control. For the same compound, the T/C (dose: 12.5 mg/kg/injection, schedule: Q04DX003 (ip), vehicle: saline) was 206 % of control and the T/C (dose: 25.0 mg/kg/injection, schedule: Q04DX003 (ip), vehicle: saline) was 104 % of control.
With NC(CCSSCCC(N)P(=O)(O)O)P(=O)(O)O (stereo unspecified) the T/C [10] was 95 % of control, the T/C [11] was 92 % of control and the T/C [12] was 99 % of control.
CCn1ncc2c1nc(-c1ccccc1)c[n+]2[O-] was tested, and the T/C [16] was 92 % of control, the T/C [17] was 100 % of control and the T/C [18] was 101 % of control.
In the case of COc1ccc(C(Cl)c2ccc(OC)c(OC)c2)cc1OC, the T/C [13] is reported as 100 % of control, the T/C [14] is reported as 90 % of control and the T/C [15] is reported as 97 % of control.
CC(=N\O)/C(=N\O)C(=O)c1ccccc1 was tested, and the T/C [22] was 95 % of control, the T/C [23] was 90 % of control and the T/C [24] was 90 % of control.
For O=C(O)C(CCCCNC(=S)S)NC(=S)S.[Na+].[Zn+2] (stereo unspecified), the T/C [4] was 95 % of control, the T/C [5] was 95 % of control and the T/C [6] was 102 % of control.
For Nc1[nH]c(=O)ncc1-c1ccccc1Cl, the T/C [19] was 98 % of control, the T/C [20] was 104 % of control and the T/C [21] was 112 % of control.
For CCCCc1c(C(=O)OCC)oc(C(=O)OCC)c(CCCC)c1=O, the T/C (dose: 12.5 mg/kg/injection, schedule: Q04DX003 (ip), vehicle: Klucel (hydroxypropylcellulose) (HPC)) was 108 % of control, the T/C (dose: 25.0 mg/kg/injection, schedule: Q04DX003 (ip), vehicle: Klucel (hydroxypropylcellulose) (HPC)) was 104 % of control and the T/C (dose: 50.0 mg/kg/injection, schedule: Q04DX003 (ip), vehicle: Klucel (hydroxypropylcellulose) (HPC)) was 103 % of control. For the same compound, the T/C (dose: 100.0 mg/kg/injection, schedule: Q04DX003 (ip), vehicle: Klucel (hydroxypropylcellulose) (HPC)) was 100 % of control, the T/C (dose: 200.0 mg/kg/injection, schedule: Q04DX003 (ip), vehicle: Klucel (hydroxypropylcellulose) (HPC)) was 104 % of control and the T/C (dose: 400.0 mg/kg/injection, schedule: Q04DX003 (ip), vehicle: Klucel (hydroxypropylcellulose) (HPC)) was 106 % of control.
In the case of Nc1ccn(COCCOCc2ccccc2)c(=O)n1, the T/C [25] is reported as 98 % of control, the T/C [26] is reported as 100 % of control and the T/C [27] is reported as 99 % of control.
Cc1nc2ncnc(Cl)c2[nH]1 was tested, and the T/C [7] was 99 % of control, the T/C [8] was 105 % of control and the T/C [9] was 96 % of control.
N#CC(C#N)=C(c1ccccc1)c1ccccc1 was tested, and the T/C [1] was 95 % of control, the T/C [2] was 110 % of control and the T/C [3] was 100 % of control.
In the case of CC(C)(C)N1CCC1, the T/C [4] is reported as 100 % of control and the T/C [5] is reported as 99 % of control.
With CCCCCCCCCCCC(=O)N(CCOC(=O)c1ccco1)CCOC(=O)c1ccco1 the T/C [22] was 108 % of control, the T/C [23] was 91 % of control and the T/C [24] was 87 % of control.
For CN(C)c1ccc(/C=C/C=C2C(=O)NC(=S)NC2=O)cc1, the T/C [25] was 89 % of control, the T/C [26] was 92 % of control and the T/C [27] was 87 % of control.
In the case of CCOC(=O)N/N=C/c1ccc2c(c1)c1ccccc1n2CC, the T/C [4] is reported as 90 % of control, the T/C [5] is reported as 98 % of control and the T/C [6] is reported as 90 % of control.
With CC(C)[N+](C)(C)CC(O)COc1cccc2ccccc12 (stereo unspecified) the T/C (dose: 50.0 mg/kg/injection, schedule: Q01DX009 (ip), vehicle: saline) was 104 % of control.
For Cc1ccc(S(=O)CC2=NC(C)(C)CO2)cc1 (stereo unspecified), the T/C [7] was 104 % of control, the T/C [8] was 98 % of control and the T/C [9] was 103 % of control.
For N#CC(=O)Nc1cccc(Cl)c1, the T/C (dose: 15.0 mg/kg/injection, schedule: Q01DX005 (ip), vehicle: saline with Tween-80) was 107 % of control and the T/C (dose: 30.0 mg/kg/injection, schedule: Q01DX005 (ip), vehicle: saline with Tween-80) was 103 % of control.
With CCOc1ccc(/C=C/S(=O)(=O)/C=C\c2ccccc2)c(OC)c1 the T/C [10] was 98 % of control, the T/C [11] was 92 % of control and the T/C [12] was 87 % of control.
CC1(C)C2CCC(C2)C1OC(=O)c1ccccc1C(=O)O (stereo unspecified) was tested, and the T/C [19] was 99 % of control, the T/C [20] was 98 % of control and the T/C [21] was 104 % of control.
O=[N+]([O-])c1cccc(/C=C/C=C/c2cccc(S(=O)(=O)F)c2)c1 was tested, and the T/C [23] was 90 % of control, the T/C [24] was 86 % of control and the T/C (dose: 400.0 mg/kg/injection, schedule: Q01DX009 (ip), vehicle: saline with Tween-80) was 86 % of control.
